In patent US8242118B2, “Arylsulfonamide derivatives for use as CCR3 antagonists in the treatment of inflammatory and immunological disorders” (Axikin Pharmaceuticals Inc., priority 2001, dated 2012):
Where a name gives a salt, the structure may show the parent alone.

Tests used:
Human CCR3 = molecular target: T1, Human CCR3 (Homo sapiens, UniProt P51677); experiment: Receptor binding assay (RBA), [125I]-eotaxin; settings: human CCR3-transformed K562 cells, 0.1 nM [125I]-eotaxin; compounds of about 40 to 90% purity; read-out: Activity grade RBA (IC50 class)
T1 construct: The cloned CCR3 cDNA was constructed with pcDNA3 vector and transfected into a IC562 cell line; expressed in transfected cells
T1 sequence (P51677 1-355): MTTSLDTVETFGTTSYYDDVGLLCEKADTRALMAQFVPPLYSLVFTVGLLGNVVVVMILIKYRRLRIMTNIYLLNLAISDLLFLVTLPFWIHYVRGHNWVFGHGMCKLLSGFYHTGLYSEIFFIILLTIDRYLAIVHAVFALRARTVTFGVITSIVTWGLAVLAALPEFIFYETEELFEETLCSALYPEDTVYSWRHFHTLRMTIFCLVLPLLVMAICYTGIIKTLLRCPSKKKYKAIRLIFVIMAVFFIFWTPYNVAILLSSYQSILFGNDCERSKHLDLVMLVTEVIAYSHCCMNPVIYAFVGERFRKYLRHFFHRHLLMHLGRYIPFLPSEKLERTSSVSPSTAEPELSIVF
Method: [Determination of IC50 Values of Compounds in Receptor Binding Assay]
• Human CCR3-transformed K562 cells were used. The cloned CCR3 cDNA was constructed with pcDNA3 vector and transfected into a IC562 cell line. The human CCR3-transformed K562 cells were maintained in RPMI-1640 (Cat.#22400-089, Life Technologies) supplemented with 10% FCS (Cat.#A-1115-L, Hyclone), 55 μM 2-mercaptoethanol (Cat.#21985-023, Life Technologies), 1 mM sodium pyruvate (Cat.#11360-070, Life Technologies), 100 units/ml of penicillin G and 100 μg/ml of streptomycin (Cat.#15140-122, Life Technologies), and 0.4 mg/ml of Geneticin (Cat.#10131-035, Life Technologies)(hereinafter called “culture medium”). Before the receptor binding assay, cells were pretreated with 5 mM sodium butyrate (Cat.#193-01522, Wako)-containing the culture medium (2×10^5 cells/ml) for 20-24 hours to increase the expression of CCR3. (2) Receptor Binding Assay (RBA) • Butyrate-pretreated cells, suspended in binding buffer (25 mM HEPES pH 7.6, 1 mM CaCl2, 5 mM MgCl2, 0.5% BSA, 0.1% NaN3) at a cell density of 2×10^6 cells/ml, were added into 60 μl/well in the 96-well round bottom polypropylene plate (Cat.#3365, Costar). Compounds, diluted with the binding buffer (4-times higher concentration of the final concentration), were added into 30 μl/well in the polypropylene plate. [^125I]-labeled human eotaxin (Cat.#IM290, Amersham Pharmacia Biotech), diluted with the binding buffer at the concentration of 0.4 nM (final concentration; 0.1 nM), was added into 30 μl/well in the polypropylene plate. Total 120 μl/well of binding reaction mixture (60 μl/well of cell suspension, 30 μl/well of compound solution, and 30 μl/well of [^125I]-labeled eotaxin) were incubated in the polypropylene plate for 1 hour at room temperature after the incubation, 100 μl/well of the reaction mixture was transferred to a filtration plate (Cat.#MAFB-N0B, Millipore), and washed with the washing buffer (25 mM HEPES pH 7.6, 1 mM CaCl2, 5 mM MgCl2, 0.5% BSA, 0.1% NaN3, 0.5 M NaCl) twice. The 96-well filtration plate was pretreated with 100 μl/well of 0.5% polyethylenimine (Cat.#P-3143, Sigma) for 2-4 hours at room temperature and washed with the washing buffer twice before use. The non-specific binding was determined by parallel incubation in the presence of 500 nM of non-labeled eotaxin (Cat.#23209, Genzyme Techne). The radioactivities remained on the filter were measured by liquid scintillation counter (TopCount™, Packard) after an addition of 45 μl/well of scintillant (Microscint20, Cat.#6013621, Packard). The inhibition percent at each concentration of compound was calculated, and IC50 values were determined from the inhibition curve. [Determination of IC50 Values of Compounds in Calcium Mobilization Assay] (IC50 Ca2+) (1) Cell • Human CCR3-transformed K562 cells were used. The human CCR3-transformed K562 cells were maintained in RPMI-1640 supplemented with 10% FCS, 55 μM 2-mercaptoethanol (Cat.#21985-023, Life Technologies), 1 mM sodium pyruvate, 100 units/ml of penicillin G and 100 μg/ml of streptomycin and 0.4 mg/ml of Geneticin. Before the calcium mobilization assay, cells were pretreated with 5 mM sodium butyrate-containing the culture medium (2×10^5 cells/ml) for 20-24 hours to increase the expression of CCR3. (2) Calcium Mobilization Assay • Butyrate-pretreated cells were loaded with Fluo-3AM (Cat.#F-1242, Molecular Probes) in loading buffer (Hanks' solution Cat.#05906 Nissui, 20 mM HEPES pH 7.6, 0.1% BSA, 1 mM probenecid Cat.#P-8761 Sigma, 1 μM Fluo-3AM, 0.01% pluronic F-127 Cat.#P-6866 Molecular Probes) at a cell density of 1×10^7 cells/ml. Then, cells were washed with calcium assay buffer (Hanks' solution Cat.#05906 Nissui, 20 mM HEPES pH 7.6, 0.1% BSA, 1 mM Probenecid Cat.#P-8761 Sigma). The cell suspension (3.3×10^6 cells/ml) was added into 60 μl/well in the 96-well clear bottom black plate (Cat.#3904, Costar). […]

Compound	IC50 (Human CCR3)	melting point
Cc1cc(C)cc(Oc2ccc([N+](=O)[O-])cc2S(=O)(=O)N2CCN(C(=O)OC(C)(C)C)CC2)c1 [Example 1-1, tert-butyl 4-{[2-(3,5-dimethylphenoxy)-5-nitrophenyl]sulfonyl}-1-piperazinecarboxylate]	> 10 µM	232 to 233 °C
Cc1cc(C)cc(Oc2ccc([N+](=O)[O-])cc2S(=O)(=O)N2CCNCC2)c1 [Example 1-2, 1-{[2-(3,5-dimethylphenoxy)-5-nitrophenyl]sulfonyl}piperazine hydrochloride]	< 1 µM	
Cl.O=[N+]([O-])c1ccc(Oc2cc(F)cc(F)c2)c(S(=O)(=O)N2CCNCC2)c1 [Example 1-4]	< 1 µM	273 to 274 °C
COc1cc(OC)cc(Oc2ccc([N+](=O)[O-])cc2S(=O)(=O)N2CCNCC2)c1.Cl [Example 1-5]	> 10 µM	211 to 213 °C
Cl.O=[N+]([O-])c1ccc(Oc2cc(C(F)(F)F)cc(C(F)(F)F)c2)c(S(=O)(=O)N2CCNCC2)c1 [Example 1-6]	< 1 µM	188 to 191 °C
CC(C)(C)c1cc(Oc2ccc([N+](=O)[O-])cc2S(=O)(=O)N2CCNCC2)cc(C(C)(C)C)c1.Cl [Example 1-7]	> 10 µM	141 to 143 °C
Cc1cc(Oc2ccc([N+](=O)[O-])cc2S(=O)(=O)N2CCNCC2)cc(C(C)C)c1.Cl [Example 1-8]	< 1 µM	182 to 185 °C
CC(C)c1cccc(Oc2ccc([N+](=O)[O-])cc2S(=O)(=O)N2CCNCC2)c1.Cl [Example 1-9]	< 1 µM	168 to 170 °C
Cl.N#Cc1cccc(Oc2ccc([N+](=O)[O-])cc2S(=O)(=O)N2CCNCC2)c1 [Example 1-10]	1 to 10 µM	265 to 267 °C
Cl.O=[N+]([O-])c1ccc(Oc2cccc3ccccc23)c(S(=O)(=O)N2CCNCC2)c1 [Example 1-11]	1 to 10 µM	196 to 198 °C
Cc1ccccc1Oc1ccc([N+](=O)[O-])cc1S(=O)(=O)N1CCNCC1.Cl [Example 1-12]	1 to 10 µM	167 to 169 °C
Cl.Cl.Cl.Nc1ccc(Oc2ccc([N+](=O)[O-])cc2S(=O)(=O)N2CCNCC2)cc1 [Example 1-13]	> 10 µM	246 to 248 °C
O=[N+]([O-])c1ccc(Oc2ccccc2)c(S(=O)(=O)N2CCNCC2)c1 [Example 1-18]	1 to 10 µM	
COc1ccc(Oc2ccc([N+](=O)[O-])cc2S(=O)(=O)N2CCNCC2)cc1 [Example 1-19]	> 10 µM	
O=[N+]([O-])c1ccc(Oc2ccc(F)cc2)c(S(=O)(=O)N2CCNCC2)c1 [Example 1-20]	> 10 µM	
CC(C)(C)c1ccc(Oc2ccc([N+](=O)[O-])cc2S(=O)(=O)N2CCNCC2)cc1 [Example 1-21]	> 10 µM	
O=[N+]([O-])c1ccc(Oc2ccc(Cl)cc2)c(S(=O)(=O)N2CCNCC2)c1 [Example 1-22]	> 10 µM	
O=[N+]([O-])c1ccc(Oc2cccc(F)c2)c(S(=O)(=O)N2CCNCC2)c1 [Example 1-25]	< 1 µM	
N#Cc1ccccc1Oc1ccc([N+](=O)[O-])cc1S(=O)(=O)N1CCNCC1 [Example 1-29]	1 to 10 µM	
Cc1cc(Oc2ccc([N+](=O)[O-])cc2S(=O)(=O)N2CCNCC2)c(C(C)C)cc1Cl [Example 1-81]	> 10 µM	
Cc1cc(C)cc(Oc2ccc([N+](=O)[O-])cc2S(=O)(=O)N2CCN(CCOCCO)CC2)c1 [Example 1-89]	< 1 µM	
Cc1cc(C)cc(Oc2ccc([N+](=O)[O-])cc2S(=O)(=O)N2CCCNCC2)c1 [Example 1-90]	< 1 µM	
Cc1cc(C)cc(Oc2ccc([N+](=O)[O-])cc2S(=O)(=O)N2CC(C)NC(C)C2)c1 (stereo not shown) [Example 1-92]	< 1 µM	
CC1CN(S(=O)(=O)c2cc([N+](=O)[O-])ccc2Oc2cc(Cl)cc(Cl)c2)CC(C)N1 (stereo not shown) [Example 1-93]	< 1 µM	

The next lines start with the values.

IC50 (Human CCR3)	melting point	Compound
< 1 µM		Cc1cc(C)cc(Sc2ccc([N+](=O)[O-])cc2S(=O)(=O)N2CCNCC2)c1 [Example 2-1, 1-({2-[(3,5-dimethylphenyl)-sulfanyl]-5-nitrophenyl}sulfonyl)piperazine hydrochloride]
> 10 µM		Cc1cc(C)cc(Oc2ccc(N)cc2S(=O)(=O)N2CCN(C(=O)OC(C)(C)C)CC2)c1 [Example 5-1, tert-butyl 4-{[5-amino-2-(3,5-dimethyl-phenoxy)phenyl]sulfonyl}-1-piperazinecarboxylate]
< 1 µM		Cc1cc(C)cc(Oc2ccc(Cl)cc2S(=O)(=O)N2CCNCC2)c1 [Example 5-2, 1-{[5-chloro-2-(3,5-dimethylphenoxy)phenyl]sulfonyl}piperazine hydrochloride]
> 10 µM		Cc1cc(C)cc(Oc2ccc(O)cc2S(=O)(=O)N2CCNCC2)c1 [Example 6-1, 4-(3,5-dimethylphenoxy)-3-(1-piperazinylsulfonyl)phenol hydrochloride]
< 1 µM		COc1ccc(Oc2cc(C)cc(C)c2)c(S(=O)(=O)N2CCNCC2)c1 [Example 6-2, hydrochloride]
< 1 µM		Cc1cc(C)cc(Oc2ccc(Br)cc2S(=O)(=O)N2CCNCC2)c1 [Example 8-1, 1-{[5-bromo-2-(3,5-dimethylphenoxy)phenyl]sulfonyl}piperazine hydrochloride]
< 1 µM		Cc1cc(C)cc(Oc2ccc(C#N)cc2S(=O)(=O)N2CCNCC2)c1 [Example 9-1, 4-(3,5-dimethylphenoxy)-3-(1-piperazinylsulfonyl)benzonitrile hydrochloride]
1 to 10 µM		CN(C)C(=O)c1ccc(Oc2cc(Cl)cc(Cl)c2)c(S(=O)(=O)N2CCNCC2)c1 [Example 10-1, 4-(3,5-dichlorophenoxy)-N,N-dimethyl-3-(1-piperazinylsulfonyl)benzamide hydrochloride]
> 10 µM		Cc1cc(C)cc(Oc2cc3cc[nH]c3cc2S(=O)(=O)N2CCNCC2)c1 [Example 11-1, 5-(3,5-dimethylphenoxy)-6-(1-piperazinylsulfonyl)-1H-indole trifluoroacetate]
< 1 µM		N#Cc1ccc(Nc2cc(Cl)cc(Cl)c2)c(S(=O)(=O)N2CCNCC2)c1 [Example 20-1, 4-[(3,5-dichlorophenyl)amino]-3-(1-piperazinylsulfonyl)benzonitrile hydrochloride]
1 to 10 µM		Cc1cc(C)cc(Oc2ccncc2S(=O)(=O)N2CCNCC2)c1 [Example 25-1, 1-{[4-(3,5-dimethylphenoxy)-3-pyridinyl]sulfonyl}piperazine hydrochloride]
